The values below come from paper PMC8624133, “10th Trends in Medical Mycology Held on 8 to 11 October 2021, Aberdeen, Scotland, Organized by the European Confederation of Medical Mycology (ECMM)” (Journal of Fungi, 2021).

Converted amounts (≈) assume the structure as drawn. Like-named read-outs stand apart in the source and are kept apart here.

Broadly, the MIC is the least concentration at which growth counts as inhibited.

One data set concerns T. rubrum. The conditions noted are these: eight susceptible strains; ref Arendrup et al., 2020; cited from earlier work.
Another data set concerns T. indotineae. The conditions noted are these: eleven susceptible strains; ref Arendrup et al., 2020; cited from earlier work.
In data set [1] the test system is T. mentagrophytes. Briefly: EUCAST E.DEF11.0 susceptibility.
Experimental: Materials/methods: Samples from patients with clinically suspected dermatophytosis attending the outpatient Dermatology-Venereology Department of “Attikon” hospital during 2010–2019 were collected. Specimens were processed for direct microscopic examination (Blankophor in 10% KOH) and were inoculated on two plates each of Sabouraud’s dextrose agar supplemented with gentamicin + chloramphenicol and the other containing phenol red + cyclohexamide (incubation at 30 °C up to 4 weeks). Recovered isolates were identified to the genus and species level by standard phenotypic methods based on their colonial/microscopic morphology and biochemical properties (hydrolysis of urea) and were stored in 10% glycerol stocks at −70 °C.
The subject of data set [2] is Exophiala phaeomuriformis. In words: MIC, CLSI M27-A3. It counts as cell-based. The conditions noted are these: read-out: MIC values. In short, it runs like this:
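Isolate recovered from aviation kerosene by 0.22 μm membrane filtration, grown on potato dextrose agar at 30 °C for seven days and identified by ITS sequencing. Susceptibility to clinical antifungals tested per CLSI M27-A3.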

Data set [3] has as its system T. rubrum and T. interdigitale isolates. In words: CLSI M38A2 broth microdilution. Background: Broth dilution looks for growth in wells or tubes with falling amounts of substance.
Data set [4] relates to dermatophyte standard strains and clinical isolates. Briefly: Broth microdilution MIC. It counts as cell-based, Trichophyton and Microsporum spp. The conditions noted are these: all tested strains. The procedure:
Materials & Methods: The minimum inhibitory concentration (MIC) of honokiol was assessed by broth microdilution method against standard strains (Trichophyton rubrum ATCC 28188, Trichophyton mentagrophytes ATCC 9533), and clinical isolates (T. rubrum, T. ajelloi, Microsporum canis and M. gypseum). Evaluation of honokiol effect on ergosterol biosynthesis was assessed by high performance liquid chromatography. Checkerboard microtiter method was used to identify synergistic combinations of honokiol with terbinafine against Trichophyton rubrum ATCC 28188. The combinatorial effect was evaluated by calculating the fractional inhibitory concentration index (FICI).

Data set [5] concerns clinical dermatophyte isolates. Briefly: Inhibition of dermatophyte biofilm formation. The data set is classed as cell-based. The procedure:
Materials and Methods: The study population consisted of 50 dermatophyte isolates that were collected from 2019 to 2020 from patients referred to the two mycology laboratory of Shiraz, Iran. The isolates were identified by ITS gene region sequencing. The suspension (equivalent to 0.5 McFarland) of the isolates was used to evaluate the ability of the isolates to form biofilms and also the effect of itraconazole, terbinafine and griseofulvin at concentrations of 2–32 μg/mL on inhibiting biofilm formation. Two optical microscope and a scanning electron microscope were used to study the microscopic structure of biofilms formed on the surface of 96-well plate wells.

Data set [6] has as its system T. mentagrophytes isolates. The conditions noted are these: cited from earlier work.
In data set [7] the test system is environmental yeasts from a lagoon. Briefly: organism not typed. It counts as cell-based.
The subject of a further data set is Trichophyton spp. Briefly: Agar-based screening method. It counts as cell-based. The conditions noted are these: 0.5 McF, 5 days, 30 °C. The procedure: Inter-experimental variation was evaluated by testing 10 isolates on three different days. Single-centre validation: After determining the optimal conditions for the agar screening method, 112 molecularly identified Trichophyton spp. clinical isolates were tested.

In data set [8] the test system is T. rubrum and T. interdigitale. To be noted: cited from earlier work.
Data set [9] concerns T. mentagrophytes. Briefly: EUCAST E.DEF 11.0 MIC. The data set is classed as cell-based. To be noted: Trichophyton mentagrophytes.
Data set [10] concerns clinical Trichophyton spp. isolates. Briefly: Checkerboard microdilution based on EUCAST. It counts as cell-based. The conditions noted are these: for MIC: Trichophyton, read-out: geometric mean MIC, drug alone; for FICI of isolates exhibiting synergy / isolates with synergistic interactions: terbinafine + itraconazole. The protocol:
Materials & Methods: The combination has been tested against 9 terbinafine-susceptible and 7 terbinafine-resistant clinical Trichophyton spp. isolates from India. In vitro interactions were evaluated by a microdilution checkerboard technique based on the EUCAST reference method for antifungal susceptibility testing. The mode of interaction between terbinafine and itraconazole was determined by the fractional inhibitory concentration index (FICI). The FICI was interpreted as FICI ≤ 0.5 = synergy, FICI > 0.5–4 = no interaction, and FICI > 4.0 = antagonism.

The subject of a further data set is dermatophyte strains. Briefly: Terbinafine modified breakpoint method. It counts as cell-based.
A further data set relates to A. fumigatus biofilm. Briefly: Antibiofilm activity, XTT assay. It counts as cell-based, Aspergillus fumigatus. The protocol:
(§1) Materials & Methods: Olorofim activity has been analyzed at different stages (prior adhesion, 4 h, 12 h, 24 h and 48 h after inoculation) of biofilm formation of clinical ARAF strains (n = 16) as well as azole susceptible A. fumigatus isolates (n = 4) by using an XTT assay. Olorofim was applied in concentrations of a total, a half, a quarter and an eighth of the previously determined minimum inhibitory concentrations (MICs) by broth microdilution method after EUCAST.
(In general: Tetrazolium assays rely on reduction of a dye to a coloured formazan, in cell work by metabolically active cells.)

The test system of data set [11] is A. fumigatus isolates (ARAF and azole susceptible). In words: Broth microdilution after EUCAST. It counts as cell-based. The conditions noted are these: Aspergillus fumigatus; range, 16 ARAF and 4 azole susceptible isolates. The procedure:
as §1

Data set [12] in a line: ECMM multinational study, risk factors for CAPA. It counts as in vivo, human. The conditions noted are these: critically ill COVID-19 patients in ICU, 592 patients. The source says: Methods: The European Confederation of Medical Mycology (ECMM) conducted a multinational study including 20 centers from nine different countries to assess epidemiology, diagnosis, risk factors, treatment and outcome of CAPA. CAPA was defined according to ECMM/ISHAM consensus definitions.

The mark [13] stands for this setting: 7 terbinafine-resistant isolates.
Setting [14] is: 9 terbinafine-susceptible isolates.

Experimental for dermatophyte strains: In vitro sensitivity testing against terbinafine was carried out using a modified breakpoint method according to Yamada et al., (2017) and Ebert et al., (2020).

Regarding `CN(C/C=C/C#CC(C)(C)C)Cc1cccc2ccccc12` [terbinafine], the MIC entry in the data set on T. rubrum is “under 0.25 µg/µL”; in the data set with T. indotineae it was “under 0.25 µg/µL”; in the data set on T. mentagrophytes [1] (Trichophyton mentagrophytes, read-out: MIC of strains with elevated MICs), 0.25 to 8 µg/mL; in data set [2] it was 0.0156 µg/mL (≈ 0.0535 µM); in data set [3] (Trichophyton interdigitale) it was 1 to 2 µg/mL (≈ 3.43 to 6.86 µM); in data set [4], 0.03 to 0.06 µg/mL. Moreover, the MIC is 4 to 256 µg/mL in [7] (read-out: MIC of resistant-like isolates); 0.25 to 8 µg/mL (≈ 0.858 to 27.5 µM) in the data set on T. mentagrophytes [9]; 11.9 µg/mL in data set [10] (setting [13]); 0.12 µg/mL in data set [10] (setting [14]); 0.1 µg/mL (≈ 0.343 µM) with dermatophyte strains (few strains, conspicuous but not resistant). Moreover, the “strains with elevated MICs” value with T. mentagrophytes [1] (9/24) came out at 37.5%. In addition, the “isolates less susceptible by microdilution” value in data set [3] is reported as 2.44%. Further, in data set [5] (inhibition of biofilm formation, read-out: mean concentrations of IC50), the IC50 was 2.42 µg/mL (≈ 8.3 µM). Moreover, the “samples with IC50 in concentration <2” value in [5] (tested at 2–32 μg/mL) came to 70%. In data set [6], the resistant isolates is 30–70%. For the same compound, in data set [7], the “isolates classified as resistant-like” value was determined as 39. Further, the “optimal agar concentration preventing growth of WT isolates” value came out at 0.125 mg/L in the data set with Trichophyton spp. (for high-level resistant isolates) and 0.01 mg/L with Trichophyton spp. (for low-level resistant isolates). In data set [8], the terbinafine resistance is 1%. The “MIC range, drug alone” value was 2 to 64 µg/mL in [10] (setting [13]) and 0.03125 to 0.5 µg/mL in data set [10] (setting [14]). Also, the “FICI of isolates exhibiting synergy” value in [10] (resistant isolates) lay within 0.032 to 0.3125; in data set [10] (susceptible isolates), 0.3125 to 0.5. In addition, the results for the “isolates with synergistic interactions” value in data set [10] (resistant isolates) and in data set [10] (susceptible isolates) were 4/7 and 4/9, respectively. In addition, the in vitro resistance entry in the data set on dermatophyte strains (T. mentagrophytes ITS type VIII (T. indotineae), MIC ≥0.2 µg/mL counts as resistant) is “In vitro resistance”.
For `Cc1cc(-c2ccccc2)c(C(=O)C(=O)Nc2ccc(N3CCN(c4ncc(F)cn4)CC3)cc2)n1C` [olorofim], the biofilm reduction result with A. fumigatus biofilm (added prior to adhesion (t0) and right after adhesion (t4), compared to non-treated control) is recorded as “up to 96%”. In addition, the “effect on mature biofilm” value with A. fumigatus biofilm (t24 & t48) is “did not show an effect”. For the same compound, in data set [11], the MIC fell in the range of 0.008 to 0.03 µg/mL (≈ 0.016 to 0.0602 µM).
In the case of “tocilizumab: tocilizumab received by COVID-19 ICU patients”, the “hazard ratio for CAPA” value in [12] worked out at 2.45.
